These results are taken from patent US8216363B2, “Continuous antisolvent crystallization process and system using plug flow reactors” (Illinois Institute of Technology, priority 2008, dated 2012).

Data set [1] can be described thus: Crystal size distribution of flufenamic acid crystals by particle analyzer probe (FBRM). The data set is classed as physicochemical. The note with it: FIG. 10. As for the experimental part:
An undersaturated solution of flufenamic acid (a non-steroidal anti-inflammatory drug) was prepared with 8.7 grams of the active pharmaceutical drug and 700 ml of ethanol (the solvent) in a 1000 ml volumetric flask. The solution was stirred at room temperature (i.e., 25° C.) until complete dissolution.
Flufenamic acid solution and water (the antisolvent) were added to the reactor at constant flow rates using peristaltic pumps. The flow rate of antisolvent added to reactor was chosen in order to maintain a solution/antisolvent ratio of 1:2 vol/vol (ml/ml) in all experiments.
The effects regarding number of addition points of antisolvent on particle size distribution were studied and are summarized in Table 3. In sum, four experiments were conducted. For each experiment, the total antisolvent flow rate was 200 ml/min. In Experiment 1, there was one antisolvent addition point with 200 ml/min of […] added therein. In Experiment 2, there were two antisolvent addition points with 100 ml/min of antisolvent added to the first and second reactor modules, respectively. In Experiment 3, there were three antisolvent addition points with 67 ml/min of antisolvent added to the first, second and third reactor modules, respectively. In Experiment 4, there were four antisolvent addition points with 50 ml/min of antisolvent added to the first, second, third and fourth reactor modules, respectively.
The Raman spectra of the product crystals was collected to ascertain polymorphic form. The CSD of the solid product was also characterized using a particle analyzer probe (e.g., a Lasentec brand probe). The dried crystals were slurried in water and 0.5% of sodium dodecyl sulfate (SDS) surfactant was added to disperse the particles. A magnetic stirrer was used to keep the particles suspended during particle analysis measurements.

The conditions of data set [2]: water/methanol 80:20, one stage.
Method: The solution was maintained at about 35° C., which is 10° C. above the saturation temperature, for at least 2 hours under gentle agitation for complete dissolution of solids. The solution was cooled down and maintained at room temperature (i.e., 25° C.) overnight (approximately 8 hours).
The concentration of antisolvent introduced to the reactor 403 was suitable to maintain a solution/antisolvent ratio of about 80:20 vol/vol (ml/ml) in all of the experiments.
Three experiments were conducted with one point of antisolvent addition (one stage or one reactor module). The residence time for experiments 1, 2 and 3 were 0.5 to 2 min, respectively.
The process was performed under vacuum. The solid phase was dried overnight (approximately 8 hours) at about 65° C. Raman spectra of the product crystals were collected to ascertain the polymorphic form.
A short description of data set [3]: Crystal size distribution of ketoconazole crystals by laser diffraction (continuous plug flow antisolvent crystallization). The class given is physicochemical. On the procedure:
A saturated solution of ketoconazole (an anti-fungal drug) was prepared with about 39 grams of the pharmaceutical compound and about 470 ml of methanol as the solvent in a 1000 ml volumetric flask. The solution was maintained at about 35° C. (10° C. above the saturation temperature) for about 2 hours under gentle agitation to ensure complete dissolution of the solids.
The ketoconazole feed solution (ketoconazole and methanol) and the antisolvent (water) were added to the reactor 403 at a constant flow rate using peristaltic pumps 405. The total amount of antisolvent added to the reactor 403 was enough to maintain a solution/antisolvent ratio of about 70:30 vol/vol (ml/ml) in all of the experiments.
The effect of residence time in the reactor (the term residence time is used to denote the total cumulative residence time in all of the reactor modules combined) and number of stages (that is, the number of reactor modules) on crystal size distribution was studied. […]
The effects of residence time and number of stages on the CSD were analyzed. […] Further, the diluted ketoconazole solid in methanol was measured with a UV spectrophotometer (e.g., a GENESYS 20 UV spectrophotometer) in order to determine the concentration of the ketoconazole. […]
The CSD of ketoconazole was measured at different residence times and number of stages as illustrated in Table 1 using laser diffraction. […]

Where two headings read alike, the source gives them in different places.

As for `O=C(O)c1ccccc1Nc1cccc(C(F)(F)F)c1` [flufenamic acid], the mean crystal size in data set [1] (first addition point of antisolvent, ethanol/water 1:2) is given as 65-70 μm; in data set [1] (printed as third addition point (second mention)), “approximately 110 μm”; in data set [1] (second addition point of antisolvent) it was “approximately 80 μm”; in data set [1] (third addition point of antisolvent), “approximately 95 μm”.

With `NCC(=O)O` [glycine], the figures for the “polymorphic form of product crystals” value in data set [2] (as the residence time increased) and in data set [2] (low residence time) were “β-glycine crystals” and “α-glycine crystals”, respectively.

With `CC(=O)N1CCN(c2ccc(OCC3COC(Cn4ccnc4)(c4ccc(Cl)cc4Cl)O3)cc2)CC1` (centres unmarked) [ketoconazole], the mean crystal size result is listed as “about 2.5 μm” in data set [3] (FIG. 5, first stage of antisolvent addition, residence time about 40 min, methanol/water 70:30) and “about 3.0 μm” in data set [3] (FIG. 7, two points of antisolvent addition).
